Patent US20220389058A1, “PEPTIDES AND COMPOSITIONS FOR USE IN COSMETICS AND MEDICINE” (LIPOTRUE, S.L., priority 2019, published 2022)

Assays:
HDFa cells = test: Expression of genes related with collagen production and extracellular matrix, RT-qPCR in HDFa (Example 10); assay type: cell-based, Human; conditions: 0.01 mg/mL
Description: (§1) A stock solution of the peptide was prepared in water at 1 mg/mL. Working solution was freshly prepared at the specified concentration from stock solution in the corresponding supplemented medium.
RNA (ribonucleic acid) extraction and RT-qPCR (reverse transcription quantitative polymerase chain reaction) were performed. Briefly, HDFa cells were seeded in duplicate (n=2) in 6-well plates at a density of 4×10^5 cells/well and maintained at standard culture conditions (106 Medium supplemented with 1% (v/v) LSGS; 37° C., 95% room humidity, 5% CO2) for 24 hours. Then, cells were treated with peptide Ac-SEQ ID NO: 1-NH2 at the concentration of 0.01 mg/mL for 24 and 48 hours. Untreated cells were used as basal or negative control.
(§2) Cells were finally lysed, and replicates were pooled together for RNA extraction using Qiagen RNeasy Mini kit following manufacturer's instructions. Purified RNAs were used to generate the corresponding cDNAs (complementary deoxyribonucleic acids) by reverse transcription using a commercial kit High capacity cDNA reverse transcription kit (Applied Biosystems) which served as templates for amplification. RT-qPCR was performed with the panel of appropriate TaqMan assay probes for genes shown in table 5 (plus GAPDH—Glyceraldehyde 3-phosphate dehydrogenase—that was used as housekeeping gene) and 2×gene expression Master Mix using StepOne plus Real-Time PCR instrument. Amplification included 40 cycles of: 15 seconds at 95° C. (denaturation) and 1 minute at 60° C. (Annealing and extension) (Arya, M., Shergill, I. S., Williamson, M., Gommersall, L., Arya, N., Patel, H. R. (2005) Basic principles of real-time quantitative PCR. Expert Rev. Mol. Diagn.; 5(2):209-19; and Jozefczuk, J. and Adjaye, J. (2011) Quantitative real-time PCR-based analysis of gene expression. Methods Enzymol. 500; 99-109).
(§3) The obtained data was analysed using the ΔΔCt method, which provides the target gene expression values as fold changes in the treated sample compared with an untreated basal sample. Both samples were normalized with the relative expression of a housekeeping gene GAPDH (Glyceraldehyde 3-phosphate dehydrogenase).

HEKa cells [1] = test: Genes related with response to sleep deprivation, RT-qPCR in HEKa (Example 16); assay type: cell-based, Human; conditions: 0.01 mg/ml, 24 hours
Description: as §1
RNA (ribonucleic acid) extraction and RT-qPCR (reverse transcription quantitative polymerase chain reaction) were performed. Briefly, HEKa, HDFa or HUVEC cells were seeded in duplicate (n=2) in 6-well plates at a density of 4×10^5 cells/well (2×10^5 cells/well for HUVEC cells) and maintained at standard culture conditions (106 Medium supplemented with 1% (v/v) LSGS for HDFa cells; Medium Epilife supplemented with 1% (v/v) EDGS and 1% (v/v) penicillin/streptomycin for HEKa cells; Endothelial Cell Growth Medium for HUVEC cells; 37° C., 95% room humidity, 5% CO2) for 24 hours.
Then, cells were treated with peptide Ac-SEQ ID NO: 1-NH2 at the concentration of 0.01 mg/mL for 24 hours. Untreated cells were used as basal or negative control.
as §2, with “table 10” for “table 5”
as §3

HEKa cells [2] = test: Expression of genes related to epidermal cell cohesion, RT-qPCR in HEKa (Example 9); assay type: cell-based, Human; conditions: 0.01 mg/mL, 24 hours
Description: as §1
RNA (ribonucleic acid) extraction and RT-qPCR (reverse transcription quantitative polymerase chain reaction) were performed. Briefly, HEKa cells were seeded in duplicate (n=2) in 6-well plates at a density of 4×10^5 cells/well and maintained at standard culture conditions (Medium Epilife supplemented with 1% (v/v) EDGS and 1% (v/v) penicillin/streptomycin; 37° C., 95% room humidity, 5% CO2) for 24 hours.
Then, cells were treated with peptide Ac-SEQ ID NO: 1-NH2, Ac-SEQ ID NO: 2-NH2 or Ac-SEQ ID NO: 3-NH2 at the concentration of 0.01 mg/mL for 24 hours. Untreated cells were used as basal or negative control.
as §2, with “table 1” for “table 5”
as §3

[3] = Protein glycation (AGE formation), fluorimetric (Example 14); assay type: biochemical; conditions: 0.01, 0.05, 0.1 and 0.5 mg/mL; 72 hours at 37° C.; vs negative control
Description: Briefly, 0.01, 0.05, 0.1 and 0.5 mg/mL of peptide Ac-SEQ ID NO: 1-NH2 were mixed together with a glycation agent and its corresponding substrate. Samples were incubated for 72 hours at 37° C. A fluorimetric method was used to evaluate the % of protein glycation compared to the negative control (sample only with sugar substrate).

Ac-Arg-Arg-Gln-Met-Arg-Glu-NH2 (Ac-RRQMRE-NH2) [Ac-SEQ ID NO: 1-NH2]
COL3A1 Fold change between treated cells and basal control (HDFa cells; 24 hours): 1.32 Fold change
LAMA1 Fold change between treated cells and basal control (HDFa cells; 24 hours): 1.16 Fold change
TIMP2 Fold change between treated cells and basal control (HDFa cells; 24 hours): 1.35 Fold change
MMP1 Fold change between treated cells and basal control (HDFa cells; 48 hours): −1.30 Fold change
MMP3 Fold change between treated cells and basal control (HDFa cells; 48 hours): −1.69 Fold change
CXCL8 Fold change between treated cells and basal control (HEKa cells [1]): −1.33 Fold change
MTNR1A Fold change between treated cells and basal control (HEKa cells [1]): 2.11 Fold change
SIGIRR Fold change between treated cells and basal control (HEKa cells [1]): 1.27 Fold change
SLC2A1 Fold change between treated cells and basal control (HEKa cells [1]): −1.21 Fold change
CDSN Fold change between treated cells and basal control (HEKa cells [2]): 1.46 Fold change
CLDN1 Fold change between treated cells and basal control (HEKa cells [2]): 1.57 Fold change
CLDN4 Fold change between treated cells and basal control (HEKa cells [2]): 2.64 Fold change
DSC2 Fold change between treated cells and basal control (HEKa cells [2]): 1.23 Fold change
DSP Fold change between treated cells and basal control (HEKa cells [2]): 1.28 Fold change
JUP Fold change between treated cells and basal control (HEKa cells [2]): 1.42 Fold change
OCLN Fold change between treated cells and basal control (HEKa cells [2]): 1.98 Fold change
PCDH1 Fold change between treated cells and basal control (HEKa cells [2]): 2.41 Fold change
PKP2 Fold change between treated cells and basal control (HEKa cells [2]): 1.72 Fold change
PPL Fold change between treated cells and basal control (HEKa cells [2]): 1.54 Fold change
TJP1 Fold change between treated cells and basal control (HEKa cells [2]): 1.25 Fold change
protein glycation [3]: able to protect from protein glycation
